Assay [1] concerns HIV-1IIIB. Briefly: HIV-1 antiviral assay in CEM-SS cells (MTS readout).
Assay [2] relates to spleen cells. Briefly: Th1/Th2 cytokine profiling assay (Ovalbumin-restimulated spleen cells, CBA Kit). The conditions noted are these: 10 micrograms per ml; Ovalbumin restimulation; 72 hours. The format is cell-based, Balb/c mice.
Excerpt: The Balb/c mice (originated in 1923, it is a popular strain and is used in many different research disciplines. Also classified as an inbred from the production of 20 or more successive brother-sister matings, the Balb/c mouse is albino and small in size) were immunized on Days 1, 15, and 29 with Ovalbumin (Ovalbumin is the main protein found in egg white, commonly used to stimulate an immunological reaction in test animals) in PBS (5 micrograms/injection). On day 50, spleens of the mice were harvested (3 weeks after last boost with Ovalbumin). […] Thereafter, additional Ovalbumin was added to the cells at 10 micrograms/ml for in vitro restimulation of the cells. 72 hours later, cell supernatants were harvested and assayed using the Becton Dickinson Mouse Th1/Th2 Cytokine CBA Kit. This kit can be used to measure Interleukin-2 (IL-2), Interleukin-4 (IL-4), Interleukin-5 (IL-5), Interferon-γ (IFN-γ), and Tumor Necrosis Factor-α (TNF-α) protein levels in a single sample.
Assay [3] has as its system hepatitis B virus (HBV) ayw strain. Nature of the assay: HBV experimental assay system (HepG2-2.2.15, TaqMan PCR of secreted HBV DNA). The format is cell-based. The conditions noted are these: 10 micrograms per ml; HepG2-2.2.15 cells; six days; HBV DNA by TaqMan PCR. From the text:
HepG2-2.2.15 is a stable cell line containing the hepatitis B virus (HBV) ayw strain genome (ATCC Cat. No. CRL-11997). Antiviral compounds blocking any late step of viral replication such as transcription, translation, pregenome encapsidation, reverse transcription, particle assembly and release can be identified and characterized using this cell line. In this assay, an active compound will reduce the production of secreted HBV from cells, measured by utilizing real time quantitative PCR (TaqMan) assay to directly and accurately measure HBV DNA copies.
HepG2-2.2.15 cells were plated in 96-well microtiter plates. After 16-24 hours the confluent monolayer of HepG2-2.2.15 cells was washed and the medium was replaced with complete medium containing test peptides—10 micrograms per ml—in duplicate. […] Six days following the initial administration of the peptides, the cell culture supernatants was collected, treated with pronase and DNAse and then used in a real-time quantitative TaqMan PCR assay. The PCR-amplified HBV DNA was detected in real-time by monitoring increases in fluorescence signals that result from the exonucleolytic degradation of a quenched fluorescence probe molecule that hybridizes to the amplified HBV DNA. […] Antiviral activity was calculated from the reduction in HBV DNA levels (% virus control). […]
Background: Real-time PCR tracks product formation cycle by cycle.

Assay [4] relates to HCMV strain AD169. Briefly: HCMV plaque formation assay in MRC-5 cells. The conditions noted are these: 10 micrograms per ml, 7-10 days.
Assay [5] concerns Primary Human endothelial cells (HUVEC). Briefly: Endothelial cell migration assay. The conditions noted are these: 10 micrograms per ml, 22 hours, combination peptide 1:peptide 2 0.95 mole:1.05 mole.
Description: Primary Human endothelial cells (HUVEC) were seeded in insert chambers with 3 micrometer pore size of multi-transwell plate for 6 hours at 37° C. in Endothelial Cell Basal Medium (EBM) supplemented with 0.1% bovine serum albumin. Thereafter, designated concentration of testing peptides -10 micrograms per ml—was added in duplicate wells. The endothelia were allowed to migrate for 22 hours at 37° C., then, migrated cells were fixed and stained with Hoechst 33342 dye. Images of 3 fields per insert were taken and the number of migrated cells per field were quantified using the ImageProPlus software. Data were analyzed for the average number of the migrated cells and standard deviation of six data points for each treatment condition. […] Statistic p values were computed using the Student's t-test.
The test system of assay [6] is HUVEC. Briefly: Endothelial tube formation assay. The conditions noted are these: 10 micrograms per ml, 20 hours, combination peptide 1:peptide 2 0.95 mole:1.05 mole.
Description: The endothelial tube formation assay is based on the ability of endothelial cells to form three-dimensional capillary-like tubular structures when cultured on a gel of basement membrane extract. […] Pre-labeled HUVEC with Calcein AM were seeded in a 96-well culture plate coated with extracellular metrix (Chemicon international Cat. ECM625) and treated with test peptides—10 micrograms per ml—in full growth medium. Positive control was vehicle only. The endothelial cells were allowed to form tubes foe 20 hours and were then examined under an inverted fluorescent microscope. Duplicate wells for each treatment were photographed and quantitatevily analyzed for an average tubule length using image analysis software ImageProPlus. Raw data were expressed as average tubule lengths in pixels ±standard deviation. Statistic p values were computed using the Student's t-test.
The subject of assay [7] is RAW 264.7 cells. Briefly: Phagocytosis assay (Fluorescein-labeled Escherichia coli, flow cytometry). The conditions noted are these: 10 micrograms per ml, combination peptide 1:peptide 2 1.10 mole:0.90 mole.
Description: RAW 264.7 (Mouse leukaemic monocyte macrophage cell line) cells were obtained from ATCC and grown in RPMI 1640 medium containing 10% FBS. Cells were incubated in 12×75 mm tubes at 37° C. with test peptides—10 micrograms per ml—for 30 min prior to adding Fluorescein-labeled Escherichia coli bacteria as the agent to be ingested. After the cells were incubated for additional 60 min at 37° C. and allowed to ingest the Fluorescein-labeled Escherichia coli bacteria, cells were fixed with 1% paraformaldehyde. The samples were then analyzed by flow cytometry to determine the amount of phagocytosis as a function of brightness (the greater the phagocytic activity, the more fluorescence in the macrophage population). Data are reported as % positive and the mean fluorescence intensity (MFI) of positively stained cells.

Where no end group is shown, it is not given here.

Regarding `Cc1cn([C@H]2C[C@H](N=[N+]=[N-])[C@@H](CO)O2)c(=O)[nH]c1=O` [AZT], the “antiviral activity of positive control compounds (HIV-1)” value in assay [1] was “expected levels of antiviral activity”.

In the case of `CC(C)(C)NC(=O)[C@@H]1CN(Cc2cccnc2)CCN1C[C@@H](O)C[C@@H](Cc1ccccc1)C(=O)N[C@H]1c2ccccc2C[C@H]1O` [indinavir], the “antiviral activity of positive control compounds (HIV-1)” value in assay [1] is on record as “expected levels of antiviral activity”.

Consider “His-Pro-Gly-Ser-Arg-Ile-Val-Leu-Ser-Leu-Asp-Val-Pro-Ile-Gly-Leu-Leu-Gln-Ile-Leu-Leu-Glu-Gln-Ala-Arg-Ala-Arg-Ala-Ala-Arg-Glu-Gln-Ala-Thr-Thr-Asn-Ala-Arg-Ile-Leu-Ala-Arg-Val-NH2 (HPGSRIVLSLDVPIGLLQILLEQARARAAREQATTNARILARV-NH2) [Peptide 2]”, for which, in assay [2], the “IFNγ spleen cells; TH1 response (% of control)” value is recorded as 105.6 % of control, the “IL-2 spleen cells (% of control)” value was 66.8 % of control, the “IL-4 spleen cells; TH2 response (% of control)” value is given as 68.9 % of control and the “IL-5 spleen cells; TH2 response (% of control)” value was 67.0 % of control. In addition, in assay [2], the “TNF-a spleen cells; TH1 response (% of control)” value is reported as 125.6 % of control. The “inhibition of HBV replication as compared to the virus control infection” value in assay [3] is recorded as “no effect”. The “inhibition of HCMV plaque formation as compared to the virus control” value in assay [4] is on record as “did not inhibit”. Further, the “inhibition of the migration of human endothelial cells” value in assay [5] was found to be 15%. Also, the “inhibition of the tube formation of endothelial cells” value in assay [6] was 35%. In addition, the “effect on the phagocytic activity of murine macrophages (increase)” value in assay [7] was found to be 31.4%.

For the molecule “Tyr-Pro-Trp-Gly-NH2 (YPWG-NH2) [Peptide 1]”, in assay [2], the “IFNγ spleen cells; TH1 response (% of control)” value is listed as 62.0 % of control, the “IL-2 spleen cells (% of control)” value was 83.2 % of control, the “IL-4 spleen cells; TH2 response (% of control)” value is listed as 77.4 % of control and the “IL-5 spleen cells; TH2 response (% of control)” value is listed as 57.1 % of control. The “TNF-a spleen cells; TH1 response (% of control)” value in assay [2] was 82.3 % of control. Moreover, in assay [3], the “inhibition of HBV replication as compared to the virus control infection” value turned out to be 14.7%. The “inhibition of HCMV plaque formation as compared to the virus control” value in assay [4] was “did not inhibit”. Further, the “inhibition of the migration of human endothelial cells” value in assay [5] was “did not inhibit”. Moreover, the “inhibition of the tube formation of endothelial cells” value in assay [6] turned out to be 40%. Moreover, the “effect on the phagocytic activity of murine macrophages (increase)” value in assay [7] is recorded as “no inhibitory or activating effects”.

The record behind these values is patent US20100204112A1, “USE OF TYR-W-MIF-1 AND UROCORTIN 2 AS THERAPEUTIC AGENTS” (priority 2007, published 2010).
